Results on five compounds are retold here after US9181375B2, “Fluorescent potassium ion sensors” (ARIZONA BOARD OF REGENTS, A BODY CORPORATE OF THE STATE OF …, priority 2011, dated 2015).

Data set [1] can be described thus: Fluorescence titration of 1(a) with KCl in HEPES buffer, Benesi-Hildebrand plot. Particulars: 10 mM HEPES pH 7.4, excitation 450 nm, emission 525 nm. It is filed as binding. Here is the method:
FIGS. 17A and 17B show the UV-Vis and emission spectral changes upon the interaction of 1(a) with potassium chloride (KCl) in 10 mM HEPES buffer (pH 7.4). […] This fluorescence change was attributed to photo-induced electron transfer. The lone electron pairs of the amino groups in the triazacryptand ligand quench the emission of the fluorophore of the amino-naphthalimide through PET. After interaction with K^+, the lone electron pairs of the ligand were occupied due to the formation of the ligand-K^+ complex. This change restores the emission of the amino-naphthalimide fluorophore. Fluorescence intensity change at 525 nm was plotted again K^+ concentration, which is illustrated in FIG. 17C. Binding constant K could be determined by the fluorescence spectral change using the Benesi-Hildebrand equation as described above.
Curve fitting of the fluorescence intensity of 1(a) against the reciprocal of the K^+ concentration (1/[K^+]), the Benesi-Hildebrand plot, gives a linear fit (FIG. 17D).

Data set [2] in a line: Fluorescence response of sensors to other cations and pH in buffer (selectivity). Here is the method:
(§1) To determine sensor responses, 50 μL of 2(a) (Example 10) was dissolved in DMSO resulting in a concentration of 200 μM which was then added into 2 mL of HEPES (10 mM, pH 7.2) buffer. […] Different metal ion concentrations were added into the solution for studying 2(a)'s responses. Although the reaction of the compound and the metal ion was rapid (usually within seconds), the spectra was measured after 2 minutes to ensure stability. 2(a)/metal ion complexes were excited at 561 nm and emissions were collected from 600 to 750 nm.
2(a) was also tested against physiological concentration levels of the following metal ions: K^+, Na^+, Ca^2+, Mg^2+, Fe^3+, Zn^2+, Mn^2+, and Cu^2+. […] Furthermore, this trend was also present when the concentrations of Na^+, Ca^2+, and Mg^2+ were increased to 140 mM (FIG. 9).
Na^+ is usually an interference ion to K^+ for the typical K^+ probes including PBFI, CD18, C18, and MCC.

Data set [3] deals with CP-A cells. The data set can be described thus: Cytotoxicity by Trypan blue staining. It is filed as cell-based. Particulars: 1(a) internalized for 30 minutes. Here is the method: (§2) Cytotoxicity of the sensor 1(a) to cells was studied using Trypan blue staining. After 30 minutes internalization of the sensor with cells, more than 97% cells were viable, showing the non-cytotoxicity of 1(a) to the two cell lines under our experimental conditions.

For data set [4], the system named is U87MG cells. The data set can be described thus: Cytotoxicity by Trypan blue staining. It is filed as cell-based. Here is the method: Cytotoxicity of 2(a) to human glioblastoma U87MG cells was studied using Trypan blue staining. To cell culture medium (100 μL) with eukaryotic cells in a 96 well microplate with 10,000 cells/well that had internalized 2(a) for 2 hours, […] of 0.4% Trypan Blue stain was added and mixed thoroughly with the medium. After standing for 5 min at room temperature (23° C.), the cells were imaged using an optical microscope in bright field mode. Dead cells appeared blue from the Trypan Blue stain, whereas healthy cells appeared transparent as a result of the cell's resistance to stain. The cells were then counted and the ratio of dead cells to live cells was calculated. Each experiment was repeated three times.
as §2

The nature of data set [5]: Fluorescence quantum yield against Rhodamine B standard. It is filed as physicochemical. As to the method: The fluorescence quantum yields (η) of samples in solutions were recorded by using Rhodamine B in ethanol (η=0.65) excited at 540 nm and were calculated according to the following equation:
[formula] where (ηr) and (ηs) are the fluorescence quantum yields of standards and the samples, respectively. Ar and As are the absorbance of the standards and the measured samples at the excitation wavelength, respectively. Ir and Is are the integrated emission intensities of standards and the samples, respectively. nr and ns are the refractive indices of the corresponding solvents present in the solutions, respectively. The experimental error was approximately 10%.

Data set [6] can be described thus: Fluorescence titration of 2(a) with KCl in HEPES buffer, Benesi-Hildebrand plot. In kind it is binding. To be noted: HEPES pH 7.2. As to the method:
as §1
2(a) is constructed using strong electron-donating (aniline) and electron-withdrawing (TCF) groups, yielding an absorption maximum at 560 nm. The extinction coefficient (s) at 560 nm is 3.84×10^4 M^−1 cm^−1. […] Upon addition of K^+, the fluorescence intensity of 2(a) increases by ca. 4 and 50 fold at K^+ concentrations of 140 mM and 1400 mM (FIGS. 8A and 8B), respectively, resulting in corresponding η of 0.52% and 5.6%. Kd was determined by the Benesi-Hildebrand equation: F0/(F0−F)=F0/(F0−Fcomplex)+F0/(F0−Fcomplex)×Kd×1/[M] (1) where F0 is the integrated fluorescence intensity of a free sensor, F is the observed integrated fluorescence intensity, Fcomplex is the emission of the ligand-metal ion complex, and [M] is the metal ion concentration. When F0/(F0−F) is plotted against 1/[M], the binding constant is given by the ratio intercept/slope. […]

Data set [7] deals with U87MG cells. The data set can be described thus: Intracellular K+ influx monitored with 2(a), confocal fluorescence, ImageJ. It is filed as cell-based, human. To be noted: isoproterenol 5 μM with 20 mM KCl in medium, 40 minutes, 37° C.; 2(a) 4 μM. Here is the method:
2(a) can also be used to monitor K^+ influx through stimuli. […] The influx stimulator (isoproterenol in KCl-containing PBS buffer) was added. Final concentrations of the added isoproterenol and KCl in the cell culture medium were 5 μM and 20 mM, respectively.

For data set [8], the system named is CP-A cells. The data set can be described thus: Intracellular K+ efflux monitored with 1(a), microplate reader. It is filed as cell-based. Particulars: cells loaded with 2 μM 1(a); nigericin 5 μM, bumetanide 10 μM, ouabain 10 μM; 2.5 h.
Procedure: (§6) U87MG and CP-A cells were seeded onto 96 well plates at 10,000 cells per well and maintained in 100 μL medium overnight. The following day, the cells were loaded with 1(a) (2 μM) for 20 min, then the excess 1(a) was removed by washing with medium. The test substances were added and the experiment was terminated after 2.5 h by washing the cells with physiological NaCl solution. A microplate reader (Molecular Device, Downingtown, Pa.) was used to read the fluorescence intensities from the intracellular 1(a). 444 nm was used to excite the sensor and the emission was measured at 538 nm. The measured fluorescence intensities were corrected with background fluorescence. Each experiment was repeated in triplicate.
(§7) The decrease of the fluorescence intensities indicates the efflux of the intracellular potassium ions from the cells.
Data set [9] deals with U87MG cells. The description is as above. In kind it is cell-based, human. Particulars: cells loaded with 2 μM 1(a); nigericin 5 μM, bumetanide 10 μM, ouabain 10 μM; 2.5 h.
Procedure: as §6, §7
Data set [10] concerns U87MG cells. The data set can be described thus: Dynamic K+ influx and efflux monitored with 2(a) after nigericin. In kind it is cell-based, human. To be noted: nigericin 20 μM in 20 mM KCl medium. Here is the method: 2(a) was further tested for in-situ observation of dynamic potassium ion influx and then efflux through the changes of fluorescence (FIG. 15) stimulated by an ionophore nigericin. Cells internalized with 4 μM of 2(a) at 37° C. for 10 minutes were washed with 20 mM KCl-containing fresh medium. Nigericin (20 μM at its final concentration) was added in 20 mM KCl-containing medium to help K^+ to across cell membrane. Enhanced fluorescence was immediately observed after the addition of nigericin, indicating potassium ion influx occurred. The potassium influx peaked after 3 minutes with an average of fluorescence increase of 370%. After 3 minutes, potassium efflux was observed by the decrease of the fluorescence. The efflux stabilized after 15 minutes, and the fluorescence intensity after the stabilization was about 25% below that of before the stimulation by nigericin. The ionophore nigericin was used to stimulate K^+ influx for yeast Saccharomyces cerevisiae. It was also reported to be a K^+ efflux stimulator for human colorectal adenocarcinoma HT-29 cells.

For a further data set, the system named is B. subtilis. The data set can be described thus: K+ release from bacteria stimulated by lysozyme, measured with F4 film. To be noted: lysozyme added to bacteria in 150 mM NaCl buffer pH 7.4, F4 film. In kind it is cell-based, B. subtilis 168. As to the method:
(§3) E. coli JM 109 and B. subtilis 168 were cultured overnight in LB medium (Difco®, Becton, Dickinson and Company, Sparks, Md.) by shaking at 180 rpm at 37° C. The concentration of E. coli and B. subtilis in culture was estimated by measuring the optical density at 600 nm (OD600). OD600 value of 1 indicated a concentration of 5.0×10^8 cfu/mL. After the microorganism density was determined, bacterial cells were collected by centrifuge at 2000×g for 20 minutes at room temperature. Then appropriate densities of bacteria were made using fresh buffer (150 mM NaCl, pH 7.4) to achieve the desired initial concentrations for experiments.
(§4) The F4 film (Example 16) was placed diagonally into quartz cuvettes with 2 mL of bacteria suspension at different densities. […] The potassium ion concentration was calculated from the measured fluorescence ratio (F/F0).
(§5) F4 film was used for both gram positive (i.e. B. subtilis) and negative (i.e. E. coli) bacteria and lysozyme was used as a model drug to stimulate K^+ efflux from the organisms. […] The washed organisms were resuspended in 2 mL of the potassium-free buffer in quartz cuvettes at a concentration range of 1.5×10^10 to 1.0×10^11 cfu/mL F4 was immersed into the above prepared mixtures, and then lysozyme was added into the cuvettes to stimulate the K^+ efflux, which was monitored through the time dependent fluorescence intensity changes of F4 film. […]

The test system of the next data set is E. coli. The description is as above. It is filed as cell-based, E. coli JM 109. Particulars: lysozyme added to bacteria in 150 mM NaCl buffer pH 7.4, F4 film. As to the method:
as §3, §4, §5

Consider `C=CCN1C(=O)c2cccc3c(NCCc4ccc(N5CCOc6cc(C)ccc6N6CCOCCOCCN(CCOCCOCC6)c6ccc(C)cc6OCC5)c(OCCOC)c4)ccc(c23)C1=O` [1(a)], for which the “binding constant (K)” value in [1] stood at 0.133 mM⁻¹. In addition, in data set [2] (1(a), Na^+, Ca^2+, Mg^2+, Fe^3+, Zn^2+, Mn^2+, Cu^2+ at physiological concentrations (FIG. 17E)), the “selectivity against biologically relevant metal ions” value was “high selectivity”. The viable cells entry in the data set with CP-A cells [3] was “more than 97%”; in the data set with U87MG cells [4] (1(a) internalized for 30 minutes, Trypan blue), “more than 97%”.
For `COCCOc1cc(/C=C/C2=C(C#N)C(=C(C#N)C#N)OC2(C)C)ccc1N1CCOc2cc(C)ccc2N2CCOCCOCCN(CCOCCOCC2)c2ccc(C)cc2OCC1` [2(a)], the “quantum yield (η)” value in data set [5] (K^+ 140 mM) was 0.52%; in [5] (K^+ 1400 mM), 5.6%; in [5] (free form, no K^+), 0.11%. In data set [2] (Na^+, Ca^2+, Mg^2+, Fe^3+, Zn^2+, Mn^2+, Cu^2+ at physiological levels, Na^+, Ca^2+, Mg^2+ also at 140 mM), the “selectivity to K^+ against other metal ions” value was “high selectivity”. Moreover, the “sensitivity to pH” value in data set [2] (pH 5 to 8) is on record as “not sensitive to pH in the range of 5 to 8”. In addition, the entries for the “fluorescence intensity increase upon addition of K^+” value in data set [6] (K^+ 140 mM) and in data set [6] (K^+ 1400 mM) were “ca. 4 fold” and approximately 50 fold, respectively. The viable cells result with U87MG cells [4] (human, 2 h) is “more than 97%”.
Consider `CC(C)NCC(O)c1ccc(O)c(O)c1` (stereo not shown) [isoproterenol], for which, in the data set with U87MG cells [7], the “increase of average fluorescence intensity of cells after treatment” value is 33%.
Take `CO[C@@H]1C[C@@H](C[C@H]2CC[C@H](C)[C@H]([C@@H](C)C(=O)O)O2)O[C@]2(O[C@](C)([C@H]3CC[C@@](C)([C@@H]4O[C@@H]([C@H]5O[C@@](O)(CO)[C@H](C)C[C@@H]5C)C[C@@H]4C)O3)C[C@H]2C)[C@@H]1C` [nigericin]: the “K^+ efflux, decrease of 1(a) fluorescence” value with CP-A cells [8] and with U87MG cells [9] was “not an efficient K^+ efflux stimulator” in each case. Also, in the data set with U87MG cells [10] (efflux stabilized after 15 minutes), the “fluorescence intensity after stabilization, below that before stimulation” value is on record as “about 25%”. Moreover, the “average fluorescence increase at peak of potassium influx” value in the data set on U87MG cells [10] (peak after 3 minutes, 2(a) 4 μM) turned out to be 370%.
lysozyme: the “K^+ efflux from bacteria over time” value in the data set on B. subtilis is “K^+ efflux was very fast, within the first 10 minutes”; in the data set on E. coli it was “K^+ efflux increased slowly over time”.
